The assay addresses T1, BTK C481S mutant (Homo sapiens, UniProt Q06187, C481S).
T1 construct: expressed in transfected cells
Description: BTK Y223 autophosphorylation in HEK293 cells expressing BTK C481S mutant. The format is cell-based. The procedure:
HEK293 cell lines stably expressing BTK wild type and the mutant form C481S are generated using standard transfection methods. For assessment of cellular inhibition potency, cells are grown in DMEM+10% FBS+1 μg/mL puromycin (complete growth media) at 37° C. in a C02 incubator. Cells are harvested according to standard protocols using TrypLE (Gibco #12604-013), counted, resuspended in complete growth media, and added to 6 well assay plates at […] in 2 mL. Plates are incubated overnight at 37° C. with 5% C02. The following day, cells are treated for 2 hours with BTK-I, prepared as a 6-point dose curve, 1:3 dilution series with final concentrations starting at a maximum concentration of 300 nM and a constant DMSO concentration of 0.5% (v/v). Control wells contain 0.5% (v/v) DMSO alone (no inhibition control). […] Supernatants are quantified by BCA (Pierce #23225) and stored at −80° C. Samples are analyzed by Simple Western (Protein Simple) with anti-phospho-BTK (Y223) (Cell signaling technologies (cst) #5082) and anti-BTK (cst #8547). β-actin is the used as a loading control and detected by regular Western blot with an anti-β-actin antibody (cst #4970). Simple Western results are analyzed with Compass software (Protein Simple). BTK Y223 phosphorylation signal is normalized to total BTK, and IC50 values are calculated using a 4-parameter fit in GraphPad Prism 7.04 software.

Molecules are shown by their SMILES. Where two headings read alike, the source gives them in different places.

T1 sequence (Q06187 whole entry C481S): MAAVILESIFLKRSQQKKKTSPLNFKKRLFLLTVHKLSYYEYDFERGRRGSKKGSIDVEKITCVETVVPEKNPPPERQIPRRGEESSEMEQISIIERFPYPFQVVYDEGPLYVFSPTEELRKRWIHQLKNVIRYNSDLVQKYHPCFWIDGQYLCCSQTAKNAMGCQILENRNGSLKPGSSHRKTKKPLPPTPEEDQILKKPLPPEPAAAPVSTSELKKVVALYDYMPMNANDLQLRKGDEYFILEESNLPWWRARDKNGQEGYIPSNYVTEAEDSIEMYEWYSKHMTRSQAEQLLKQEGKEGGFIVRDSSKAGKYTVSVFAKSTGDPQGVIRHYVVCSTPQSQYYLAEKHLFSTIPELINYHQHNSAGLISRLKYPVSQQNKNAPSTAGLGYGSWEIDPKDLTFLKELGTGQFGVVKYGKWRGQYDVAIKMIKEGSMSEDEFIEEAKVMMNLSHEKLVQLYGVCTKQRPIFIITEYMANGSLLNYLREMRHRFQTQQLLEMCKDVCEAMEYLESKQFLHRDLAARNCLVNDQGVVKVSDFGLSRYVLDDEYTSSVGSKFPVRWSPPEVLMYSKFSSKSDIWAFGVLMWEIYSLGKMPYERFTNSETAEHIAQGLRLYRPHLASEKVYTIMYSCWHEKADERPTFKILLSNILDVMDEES

As to `COc1ccc(F)cc1C(=O)NCc1ccc(-c2nn([C@@H](C)C(F)(F)F)c(N)c2C(N)=O)cc1` [BTK-I, (S)-5-amino-3-(4-((5-fluoro-2-methoxybenzamido)methyl)phenyl)-1-(1,1,1-trifluoropropane-2-yl)-1H-pyrazole-4-carboxamide], the IC90 runs as follows: (read-out: IC90) 79.2 nM; (read-out: IC90 translated to total drug in human plasma) 0.824 µg/mL.

Source of the values: patent US12551463B2, “Dosing of a Bruton's tyrosine kinase inhibitor” (Loxo Oncology, Inc., priority 2019, dated 2026).
